Values of other authors as cited in patent publication US20100272830A1, “Biocide Combination for use in Agricultural Applications” (Industrie De Nora S.p.A., priority 2008, published 2010).
Read-outs that look alike come from different tables or passages of the source.

HClO, % of total hypochlorite concentration (pH 5, 25° C.): 99.7% | HClO, % of total hypochlorite concentration (pH 6, 25° C.): 96.9% | HClO, % of total hypochlorite concentration (pH 7, 25° C.): 76.0% | HClO, % of total hypochlorite concentration (pH 8, 25° C.): 24% | HClO, % of total hypochlorite concentration (pH 9, 25° C.): 3.1% | HClO, % of total hypochlorite concentration (pH 10, 25° C.): 0.31% | HClO, % of total hypochlorite concentration (pH 11, 25° C.): 0.03% | HClO, % of total hypochlorite concentration (pH 12, 25° C.): 0.003%
SMILES: OCl [Hypochlorous acid (HClO), Hypochlorous acid]
